# Earlier results as cited in US20090175941A1, “Tablet-form slow-release preparation for vertigo” (priority 2005, published 2009).
smiles,measurement,value
"C(=C\c1ccccc1)/CN1CCN(C(c2ccccc2)c2ccccc2)CC1 [cinnarizine, 1-benzhydryl-4-trans-cinnamylpiperazine]",solubility in water,approximately 2 mg/100 ml
